Data on 3 compounds can be found in patent US6395932B1, “1,2-diphenyl-2-propen-1-one derivatives” (Santen Pharmaceutical Co., Ltd., priority 1999, dated 2002).

Each structure is given as a SMILES string.

The assay concerns bovine cultured trabecular meshwork cells. As to the kind of experiment: Effects on morphology of bovine cultured trabecular meshwork cells (image analysis of cell area). Type of assay: cell-based. Particulars: Bos taurus, 3 h, drug treatment for three hours at 37° C., rate of change in area by image analysis, read-out: EC50 (concentration required to reduce the cell area of the trabecular meshwork cells by 50%). The text has this:
In order to study utility of the present compounds in glaucoma, effects of the present compounds on morphology of trabecular meshwork cells were investigated.
The possibility has been reported that drugs having effects of increasing aqueous humor outflow can be found by evaluating effects of drugs on morphology of cultured trabecular meshwork cells (Invest. Ophthalmol. Vis. Sci., 33, 2631-2640 (1992)). Accordingly, effects of the present compounds on morphology of bovine cultured trabecular meshwork cells were studied in the similar manner to the method described in the above-mentioned literature.
Morphological changes in bovine cultured trabecular meshwork cells by adding the present compounds were quantitatively evaluated by image analysis.
Bovine trabecular meshwork cells (passage number 2 to 5) cultured in a basal medium for mammalian cell culture D-MEM (Dulbecco's Modified Eagle Medium, manufactured by Gibco Co., Ltd.) containing fetal bovine serum (10%), amphotericin B (2.5 μg/ml) and gentamicin (50 μg/ml) were treated with a trypsin-EDTA solution (0.05% trypsin, 0.53 mM EDTA·4Na) 24 hours before the later drug treatment and seeded in a 24-well plate (10^4 cells/well). Twelve hours before the later drug treatment, the cells were washed with phosphate-buffered physiological saline, and then the medium was replaced by D-MEM containing amphotericin B (2.5 μg/ml) and gentamicin (50 μg/ml) (hereinafter referred to as “medium A”).
A test compound was dissolved in dimethyl sulfoxide (DMSO), and the medium A was added to the solution, followed by sterilizing the solution by filtration. The medium A was further added to the solution to dilute it at a prescribed concentration. […]
Photographed cell images were incorporated from the photographs into an image analysis system with a CCD camera (manufactured by HAMAMATU Co., Ltd.). Outlines of the incorporated cell images were traced, and areas were measured. […]

Turning to `C=C(C(=O)c1ccc(/C=C/CN(C)C)cc1)c1ccccc1` [Compound No. 4-1, 1-[4-[(E)-3-(Dimethylamino)-1-propenyl]phenyl]-2-phenyl-2-propen-1-one], the EC50 was 580 nM. For the compound `C=C(C(=O)c1ccc(CCCN(C)C)cc1)c1ccccc1` [Compound No. 4-2, 1-[4-[3-(Dimethylamino)propyl]phenyl]-2-phenyl-2-propen-1-one], the EC50 is 840 nM. Regarding `C=C(CC)C(=O)c1ccc(OCC(=O)O)c(Cl)c1Cl` [Ethacrynic acid, reference compound], the EC50 came out at 62000 nM.
